Patent publication US20200214998A1, “Method for Treating a Brain Cancer” (Allianz Pharmascience Ltd., priority 2019, published 2020)

Tested on: U87MG-R
Test: Orthotopic TMZ-resistant GBM mouse model, intracranial U87MG-R
Settings: TMZ (15 mg/kg oral) plus vehicle; untreated control 21 days
Procedure: Animal survival was evaluated from the first day of treatment until death.
TMZ-resistant GBM inoculated orthotopic mice were randomly grouped and treated with TMZ or TMZ plus JM17.
Briefly, a skull burr hole was first created in the right frontal brain area. An ultra-fine needle was then inserted to a depth of 3 mm using stereostatic guiding, and 5×10^5 TMZ-resistant cells were injected.
Twenty-eight-week-old nude mice received U87MG-R transplantation. Five days later, these animals were randomized into four treatment groups (7 animals per group), which received TMZ (15 mg/kg) by oral gavage and JM17 by the intravenous injection three times per week (Day 1, 3, 5 of the week) as follows: Control (untreated), TMZ plus vehicle, TMZ plus JM17 (5 mg/kg) and TMZ plus JM17 (20 mg/kg) (FIG. 5).

Question: With `Cn1nnc2c(C(N)=O)ncn2c1=O` [TMZ, temozolomide] as the compound, how does the median survival read?
Answer: 20 days
